# Earlier results as cited in patent US20230181510A1, “COMPOSITION AND METHODS OF RETINOIC ACID” (priority 2020, published 2023).
# Tests used:
# human skin = conditions: topical stabilized treatment, human skin in vitro and in vivo
# collagen = conditions: topical treatment
substance,measurement,setting,value
retinoic acid,Expression of HAS genes and HA production,human skin,induce the expression of hyaluronic acid (HA) synthase (HAS) genes and HA production
same,Collagen regeneration,collagen,stimulates collagen regeneration
